Data published in patent US10201586B2 (dated 2019).
Where a SMILES comes first, the peptide text is derived from it. [ ]: non-standard residue; d: D form. Tle = CC(C)(C)[C@H](N)C(=O)O; Aib = CC(C)(N)C(=O)O

Legend:
[1] = biological target: Tissue Factor Pathway Inhibitor (TFPI) (Homo sapiens, UniProt P10646); assay: IC50 ELISA | IC50 [nM]
C57B1/6NCr1 mice = assay: nail clip blood loss study; type: in vivo, mouse
[2] = plasma stability in human plasma; type: in vitro ADME; conditions: 24 hour
[3] = pharmacokinetic analysis in mice; type: in vivo, mouse; conditions: C57B16 mice, 1 mg/kg (peptide content)
Method: The peptides were administered intravenously to C57B16 mice at a dose of 10 mg/kg. Three biological samples were analyzed for the presence of peptide at each time point.
For pharmacokinetic analysis, C57B16 mice were treated with various TFPI-binding peptides conjugated to different molecular weight PEGs and HSA. The dose of the peptide-PEG and peptide-HSA conjugates was normalized to 1 mg/kg (peptide content). […] Blood draws were taken from three animals (retro bulbar) and collected in heparinized vials at several time points following administration. The samples were centrifuged, and the peptide-conjugate content in plasma was quantified by ELISA.

FVIII knock-out mice = conditions: 1 mg/kg JBT2329 without ADVATE
FIX knock-out mice = assay: tail-tip bleed model; type: in vivo, mouse
Method: The amount of blood was determined gravimetrically.
JBT2329 also was tested in a FIX knock-out tail-tip bleed mouse model, which is a clinically-relevant model for hemophilia B human patients. The methodology was substantially similar to that described above with respect to the FVIII knock-out model. Instead of ADVATE, a recombinant FIX (rFIX) served as a reference. Median total blood loss in buffer-treated animals was 935 mg. Median total blood loss in animals treated with a murine anti-TFPI antibody (maTFPI) was 774 mg. Median total blood loss was reduced further when the animals received combined treatment of maTFPI and rFIX.

[4] = tested on: human whole blood clot formation; assay: rotation thromboelastography (ROTEM); conditions: Hem A (FVIII-inhibited) human whole blood
Method: Continuous visco-elastic assessment of human whole blood clot formation and firmness was performed by rotation thromboelastography with whole blood preparations in the presence or absence of peptides.
Recordings were made using a ROTEM thromboelastography coagulation analyzer (Pentapharm, Munich, Germany) at 37° C. Briefly, blood is added into a disposable cuvette in a heated cuvette holder. A disposable pin (sensor) is fixed on the tip of a rotating axis. The axis is guided by a high precision ball bearing system and rotates back and forth. The axis is connected with a spring for the measurement of elasticity. The exact position of the axis is detected by the reflection of light on a small mirror on the axis. The loss of elasticity when the sample clots leads to a change in the rotation of the axis. The data obtained are computer analyzed and visualized in a thromboelastogram. […] An elasticity of approximately zero is observed before clot formation begins. Mirror image traces above and below the zero line indicate the effect of clot formation on the rotation of the axis.
The analytical set-up was as follows: to 20 μL of test sample or control, 300 μL of pre-warmed (37° C.) CTI treated citrated whole blood was added, followed by 20 μL of a 1:15 dilution of TF PRP reagent containing recombinant human tissue factor (rTF, 3 pM) (TS40, Thrombinoscope BV, Maastricht, The Netherlands).
The thromboelastographic parameters of clotting time (CT), clot formation time (CFT) and maximum clot firmness (MCF) were recorded in accordance with the manufacturer's instructions. CT is defined as the time from the start of measurement to the start of clot formation. CFT is defined as the time from the start of clot formation until an amplitude of 20 mm is reached. MCF is the maximum difference in amplitude between the two traces during the assay. The first derivative of the data of the thromboelastogram are plotted to obtain a graph of velocity (mm/s) against time (s). From this graph, the maximum velocity (maxV) is determined. The time at which the maximum velocity is obtained (maxV-t) is also determined.

Chain of Tissue Factor Pathway Inhibitor (TFPI) (P10646 29-304 limits assumed): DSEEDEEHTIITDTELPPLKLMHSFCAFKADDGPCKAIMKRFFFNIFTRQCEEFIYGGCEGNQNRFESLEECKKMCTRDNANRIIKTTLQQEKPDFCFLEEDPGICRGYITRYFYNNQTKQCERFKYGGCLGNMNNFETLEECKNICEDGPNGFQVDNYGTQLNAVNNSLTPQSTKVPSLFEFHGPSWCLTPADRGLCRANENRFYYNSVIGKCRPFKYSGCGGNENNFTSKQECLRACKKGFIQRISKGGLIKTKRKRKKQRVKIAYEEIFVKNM

Compound	IC50 [1] [µM]	blood loss, second 30 minute period (C57B1/6NCr1 mice; 0.1 mg/kg i.v.) [µL]	reduction of blood loss vs vehicle, first 30 minutes (C57B1/6NCr1 mice; 0.1 mg/kg i.v.)	reduction of blood loss vs vehicle, second 30 minute period (C57B1/6NCr1 mice; 0.1 mg/kg i.v.)	reduction of total blood loss over 60 minutes vs vehicle (C57B1/6NCr1 mice; 0.1 mg/kg i.v.) [%]	total blood loss over 60 minutes (C57B1/6NCr1 mice; 0.1 mg/kg i.v.) [µL]	blood loss, first 30 minutes (C57B1/6NCr1 mice; 0.1 mg/kg i.v., naive C57BL6 mice) [µL]	blood loss, entire 60 minute collection period (C57B1/6NCr1 mice; 1.0 mg/kg i.v.) [µL]	blood loss, first 30 minutes (C57B1/6NCr1 mice; 1.0 mg/kg i.v.) [µL]	blood loss, second 30 minute period (C57B1/6NCr1 mice; 1.0 mg/kg i.v.) [µL]	reduction of blood loss during 60 minutes vs vehicle (C57B1/6NCr1 mice; 10 mg/kg subcutaneous)	Human Plasma Stability, 24 hour (%) [2] [%]	HL_λ_z [h] (intravenous) ([3]; intravenous)	Bioavailability [%] (s.c.) ([3]; s.c. AUC vs i.v. AUC)	median total blood loss vs buffer (FVIII knock-out mice)	median total blood loss vs buffer (FIX knock-out mice; 1 mg/kg JBT2329 alone (p=0.321))	Efficacy vs buffer at a […] level (FIX knock-out mice; JBT2329 1 mg/kg or 0.1 mg/kg in combination with 10 IU/kg rFIX)	coagulation parameters [4]
CC(=O)N[C@@H](Cc1ccccc1)C(=O)N[C@@H](CCC(N)=O)C(=O)N[C@@H](CC(=O)O)C(=O)N[C@@H](CCCCN)C(=O)N1CCC[C@@H]1C(=O)N[C@@H](CC(N)=O)C(=O)N[C@H](C(=O)N[C@@H](Cc1c[nH]cn1)C(=O)N[C@H](C(=O)N[C@@H](CC(=O)O)C(=O)NCC(=O)N[C@@H](Cc1ccc(O)cc1)C(=O)N[C@@H](Cc1ccccc1)C(=O)N[C@@H](CCC(=O)O)C(=O)N[C@@H](CCCNC(=N)N)C(=O)N[C@@H](CC(C)C)C(=O)NC(C)(C)C(=O)N[C@@H](C)C(=O)N[C@@H](CCCCN)C(=O)N[C@@H](CC(C)C)C(N)=O)C(C)(C)C)C(C)C [JBT2426 | 4144, Ac-FQDKpNVH-Tle-DGYFERL-Aib-AKL-NH2] (Ac-FQDK[dP]NVH[Tle]DGYFERL[Aib]AKL-NH2)	0.0105																	
Ac-FQSKpNVHVDGYFERL-Aib-AKLC(PEG)-NH2 [JBT2329]		18.7	about 50%	about 64%	~60	34.7	16.0	22.8	12.2	10.6	approximately 58%	67.3	19.8	73.3	did not reduce median total blood loss	did not lead to a significant reduction in median total blood loss	statistically significant superiority over buffer	restored prolonged coagulation parameters in Hem A blood
